ChEMBL document CHEMBL5038628, “Discovery of spiro amide SHR902275: A potent, selective, and efficacious RAF inhibitor targeting RAS mutant cancers” (Eur J Med Chem, 2022)
In brackets after ≈: the same amount, converted by molar mass. Each block holds one compound with its values, some of them ahead of it. Activity calls are given as the source filed them. The calls are words filed in the database; no cut-off is given here.

Legend:
[1] = molecular target: RAF proto-oncogene serine/threonine-protein kinase (Homo sapiens, UniProt P04049); assay: Inhibition of human recombinant cRAF measured after 60 mins by TR-FRET assay
[2] = test system: NCI-H358; assay: Cytotoxicity against human NCI-H358 cells assessed as inhibition of growth measured after 72 hrs by CellTiter-Glo luciferase assay; assay type: functional
[3] = Cmax in Sprague-Dawley rat plasma at 2 mg/kg, IG by LC-MS/MS analysis; assay type: ADME, organism-based; parameters: route […], dose 2 mg/kg; settings: po
[4] = Half life in Sprague-Dawley rat plasma at 1 mg/kg, iv by LC-MS/MS analysis; assay type: ADME, organism-based; settings: Sprague-Dawley, plasma
[5] = Clearance in Sprague-Dawley rat plasma at 1 mg/kg, iv by LC-MS/MS analysis; assay type: ADME, organism-based
[6] = AUC (0 to t) in Sprague-Dawley rat plasma at 2 mg/kg, IG by LC-MS/MS analysis; assay type: ADME, organism-based; parameters: dose 2 mg/kg; settings: po
[7] = Oral bioavailability in Sprague-Dawley rat by LC-MS/MS analysis; assay type: ADME, organism-based; settings: in vivo
[8] = molecular target: Serine/threonine-protein kinase B-raf (Homo sapiens, UniProt P15056); assay: Inhibition of human recombinant wild type BRAF measured after 60 mins by TR-FRET assay
[9] = molecular target: Serine/threonine-protein kinase B-raf (Homo sapiens, UniProt P15056, V600E); assay: Inhibition of human recombinant BRAF V600E mutant measured after 60 mins by TR-FRET assay
[10] = test system: A-375; assay: Cytotoxicity against human A-375 cells assessed as inhibition of growth measured after 72 hrs by CellTiter-Glo luciferase assay; assay type: functional
[11] = test system: Calu-6; assay: Cytotoxicity against human Calu-6 cells assessed as inhibition of growth measured after 72 hrs by CellTiter-Glo luciferase assay; assay type: functional
[12] = test system: SK-MEL-2; assay: Cytotoxicity against human SK-MEL-2 cells assessed as inhibition of growth measured after 72 hrs by CellTiter-Glo luciferase assay; assay type: functional
[13] = Metabolic stability in human liver microsomes assessed as half life; assay type: ADME, Microsome
[14] = Metabolic stability in mouse liver microsomes assessed as half life; assay type: ADME, Microsome
[15] = Metabolic stability in rat liver microsomes assessed as half life; assay type: ADME, Microsome
[16] = Fraction unbound in human plasma; assay type: ADME, cell-free
[17] = Fraction unbound in mouse plasma; assay type: ADME, cell-free
[18] = Fraction unbound in rat plasma; assay type: ADME, cell-free
[19] = Cmax in Sprague-Dawley rat plasma at 20 mg/kg, IG by LC-MS/MS analysis; assay type: ADME, organism-based; parameters: route […], dose 20 mg/kg; settings: po
[20] = AUC (0 to t) in Sprague-Dawley rat plasma at 20 mg/kg, IG by LC-MS/MS analysis; assay type: ADME, organism-based; parameters: dose 20 mg/kg; settings: po
[21] = test system: Calu-6; assay: Antitumor activity against human Calu-6 cells xenografted in nude mouse assessed as tumor growth inhibition at 5 to 30 mg/kg,IT BID for 14 days relative to control; assay type: functional, organism-based; settings: dose 5-30 mg/kg, time 14.0 day
[22] = Toxicity in nude mouse assessed as reduction in body weight measured at 5 to 30 mg/kg,IT BID for 14 days; assay type: organism-based; settings: in vivo, other, 336 h, dose 5-30 mg/kg, time 14 day
[23] = molecular target: T1, Eukaryotic translation initiation factor 2-alpha kinase 3 (Homo sapiens) (UniProt Q9NZJ5); assay: Inhibition of human His-tagged PERK by TR-FRET assay
T1 sequence (whole entry): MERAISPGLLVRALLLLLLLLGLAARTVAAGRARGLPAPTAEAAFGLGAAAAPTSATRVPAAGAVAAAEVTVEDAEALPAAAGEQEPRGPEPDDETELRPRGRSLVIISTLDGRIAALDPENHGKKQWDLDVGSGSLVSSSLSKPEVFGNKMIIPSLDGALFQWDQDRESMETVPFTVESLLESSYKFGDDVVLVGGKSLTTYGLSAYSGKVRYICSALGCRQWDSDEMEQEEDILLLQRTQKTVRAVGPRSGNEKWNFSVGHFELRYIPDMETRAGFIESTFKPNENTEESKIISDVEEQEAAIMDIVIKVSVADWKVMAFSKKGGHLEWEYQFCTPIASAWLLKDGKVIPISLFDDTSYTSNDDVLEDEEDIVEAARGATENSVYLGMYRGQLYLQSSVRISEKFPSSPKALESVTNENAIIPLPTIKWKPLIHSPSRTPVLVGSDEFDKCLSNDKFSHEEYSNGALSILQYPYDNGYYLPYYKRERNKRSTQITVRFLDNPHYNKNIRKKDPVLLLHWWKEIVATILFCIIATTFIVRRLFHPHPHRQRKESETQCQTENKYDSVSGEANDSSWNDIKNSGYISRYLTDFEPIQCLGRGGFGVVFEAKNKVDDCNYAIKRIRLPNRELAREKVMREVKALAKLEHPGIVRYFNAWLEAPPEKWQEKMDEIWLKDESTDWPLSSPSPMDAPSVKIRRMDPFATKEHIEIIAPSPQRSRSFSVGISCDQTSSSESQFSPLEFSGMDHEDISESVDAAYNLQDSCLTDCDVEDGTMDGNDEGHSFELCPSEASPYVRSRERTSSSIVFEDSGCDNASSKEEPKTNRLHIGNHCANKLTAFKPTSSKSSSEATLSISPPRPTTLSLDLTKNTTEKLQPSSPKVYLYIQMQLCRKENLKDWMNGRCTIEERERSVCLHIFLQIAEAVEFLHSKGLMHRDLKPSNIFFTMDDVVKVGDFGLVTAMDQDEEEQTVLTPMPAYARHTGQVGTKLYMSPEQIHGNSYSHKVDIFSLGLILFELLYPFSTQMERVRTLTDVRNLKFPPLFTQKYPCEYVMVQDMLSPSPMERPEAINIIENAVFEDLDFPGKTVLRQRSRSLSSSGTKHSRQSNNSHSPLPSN

[24] = Cmax in C57 mouse at 2 mg/kg, IG; assay type: ADME, organism-based; parameters: route […], dose 2 mg/kg; settings: in vivo, po
[25] = Half life in C57 mouse at 1 mg/kg, iv; assay type: ADME, organism-based; settings: in vivo
[26] = Clearance in C57 mouse at 1 mg/kg, iv; assay type: ADME, organism-based; settings: in vivo
[27] = AUC (0 to t) in C57 mouse at 2 mg/kg, IG; assay type: ADME, organism-based; parameters: dose 2 mg/kg; settings: in vivo, po
[28] = Oral bioavailability in C57 mouse; assay type: ADME, organism-based; settings: in vivo
[29] = Solubility of the compound at pH 7.4; settings: buffer
[30] = Apparent permeability across apical to basolateral membrane in human Caco-2 cells
[31] = Apparent permeability across basolateral to apical membrane in human Caco-2 cells
[32] = molecular target: P-gp (ABCB1) (Homo sapiens, UniProt P08183); assay: Substrate activity at P-gp in human Caco-2 cells assessed as efflux ratio of permeability
[33] = molecular target: T2, Cytochrome P450 1A2 (Homo sapiens, UniProt P05177); assay: Inhibition of CYP1A2 (unknown origin)
T2 sequence (P05177 whole entry): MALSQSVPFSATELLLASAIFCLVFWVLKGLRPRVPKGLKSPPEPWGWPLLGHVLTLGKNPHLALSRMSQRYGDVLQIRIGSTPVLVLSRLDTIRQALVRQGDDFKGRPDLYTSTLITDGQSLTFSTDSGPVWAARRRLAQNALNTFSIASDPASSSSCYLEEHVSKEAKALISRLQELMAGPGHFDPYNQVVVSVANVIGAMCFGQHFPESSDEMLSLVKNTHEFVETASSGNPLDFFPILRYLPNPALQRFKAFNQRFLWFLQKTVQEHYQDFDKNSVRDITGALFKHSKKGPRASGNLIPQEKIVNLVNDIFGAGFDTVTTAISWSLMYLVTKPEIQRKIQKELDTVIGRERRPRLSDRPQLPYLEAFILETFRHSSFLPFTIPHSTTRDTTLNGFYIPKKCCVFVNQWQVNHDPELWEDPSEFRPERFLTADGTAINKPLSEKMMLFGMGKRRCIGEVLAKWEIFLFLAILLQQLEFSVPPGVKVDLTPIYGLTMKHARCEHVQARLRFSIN

[34] = molecular target: Cytochrome P450 2C9 (Homo sapiens, UniProt P11712); assay: Inhibition of CYP2C9 (unknown origin)
[35] = molecular target: Cytochrome P450 2C19 (Homo sapiens, UniProt P33261); assay: Inhibition of CYP2C19 (unknown origin)
[36] = molecular target: Cytochrome P450 2D6 (Homo sapiens, UniProt P10635); assay: Inhibition of CYP2D6 (unknown origin)
[37] = molecular target: T3, Cytochrome P450 3A4 (Homo sapiens, UniProt P08684); assay: Inhibition of CYP3A4 (unknown origin) using midazolam as substrate
[38] = molecular target: T3, Cytochrome P450 3A4; assay: Inhibition of CYP3A4 (unknown origin) using testosterone as substrate
[39] = test system: Calu-6; assay: Antitumor activity against human Calu-6 cells xenografted in nude mouse assessed as tumor growth inhibition at 30 mg/kg,IT QD for 12 days relative to control; assay type: functional; settings: Calu-6, 288 h, time 12 day, read-out: TGI
[40] = molecular target: Voltage-gated inwardly rectifying potassium channel KCNH2 (Homo sapiens, UniProt Q12809)
[41] = Cmax in Sprague-Dawley rat assessed as parent compound at 24 mg/kg, IG by LC-MS/MS analysis; assay type: ADME, organism-based, Plasma; parameters: route […], dose 24 mg/kg; settings: in vivo, po
[42] = Cmax in Sprague-Dawley rat plasma assessed as parent compound at 121 mg/kg, IG by LC-MS/MS analysis; assay type: ADME, organism-based; parameters: route […], dose 121 mg/kg; settings: in vivo, po
[43] = AUC (0-t) in Sprague-Dawley rat plasma assessed as parent compound at 121 mg/kg, IG by LC-MS/MS analysis; assay type: ADME, organism-based; parameters: dose 121 mg/kg; settings: in vivo, po

T3 sequence (P08684 whole entry): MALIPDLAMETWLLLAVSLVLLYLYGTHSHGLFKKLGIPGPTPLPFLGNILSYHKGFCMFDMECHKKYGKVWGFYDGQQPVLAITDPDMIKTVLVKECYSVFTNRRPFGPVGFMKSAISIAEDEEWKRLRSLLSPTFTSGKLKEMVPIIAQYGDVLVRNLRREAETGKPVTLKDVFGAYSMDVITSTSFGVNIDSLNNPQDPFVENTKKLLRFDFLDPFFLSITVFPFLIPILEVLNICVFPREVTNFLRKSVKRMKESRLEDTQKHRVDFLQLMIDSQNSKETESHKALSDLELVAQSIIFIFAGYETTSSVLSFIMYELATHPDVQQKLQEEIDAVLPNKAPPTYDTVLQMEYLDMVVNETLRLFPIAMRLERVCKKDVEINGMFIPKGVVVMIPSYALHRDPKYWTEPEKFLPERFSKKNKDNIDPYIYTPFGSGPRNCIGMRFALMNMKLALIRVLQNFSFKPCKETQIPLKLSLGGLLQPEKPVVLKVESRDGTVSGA
Sequence of RAF proto-oncogene serine/threonine-protein kinase (P04049 whole entry): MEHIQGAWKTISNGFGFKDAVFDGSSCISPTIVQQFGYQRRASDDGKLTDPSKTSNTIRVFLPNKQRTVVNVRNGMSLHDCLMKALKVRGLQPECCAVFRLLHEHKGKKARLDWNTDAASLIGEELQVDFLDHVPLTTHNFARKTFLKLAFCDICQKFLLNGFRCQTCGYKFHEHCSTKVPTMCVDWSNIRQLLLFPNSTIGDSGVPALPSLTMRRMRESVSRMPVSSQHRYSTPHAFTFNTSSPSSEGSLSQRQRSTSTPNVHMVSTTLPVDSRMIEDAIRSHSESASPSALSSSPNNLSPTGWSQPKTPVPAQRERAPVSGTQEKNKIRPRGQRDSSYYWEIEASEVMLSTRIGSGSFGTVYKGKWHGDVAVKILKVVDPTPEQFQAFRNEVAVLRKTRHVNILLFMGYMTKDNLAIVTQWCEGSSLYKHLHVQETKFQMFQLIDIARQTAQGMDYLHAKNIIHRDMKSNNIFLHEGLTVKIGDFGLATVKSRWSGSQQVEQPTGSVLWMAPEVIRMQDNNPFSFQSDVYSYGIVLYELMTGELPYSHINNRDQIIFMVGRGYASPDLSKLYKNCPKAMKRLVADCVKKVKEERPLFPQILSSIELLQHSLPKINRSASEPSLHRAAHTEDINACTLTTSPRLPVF
Sequence of Serine/threonine-protein kinase B-raf (Homo sapiens, UniProt P15056) (P15056 whole entry): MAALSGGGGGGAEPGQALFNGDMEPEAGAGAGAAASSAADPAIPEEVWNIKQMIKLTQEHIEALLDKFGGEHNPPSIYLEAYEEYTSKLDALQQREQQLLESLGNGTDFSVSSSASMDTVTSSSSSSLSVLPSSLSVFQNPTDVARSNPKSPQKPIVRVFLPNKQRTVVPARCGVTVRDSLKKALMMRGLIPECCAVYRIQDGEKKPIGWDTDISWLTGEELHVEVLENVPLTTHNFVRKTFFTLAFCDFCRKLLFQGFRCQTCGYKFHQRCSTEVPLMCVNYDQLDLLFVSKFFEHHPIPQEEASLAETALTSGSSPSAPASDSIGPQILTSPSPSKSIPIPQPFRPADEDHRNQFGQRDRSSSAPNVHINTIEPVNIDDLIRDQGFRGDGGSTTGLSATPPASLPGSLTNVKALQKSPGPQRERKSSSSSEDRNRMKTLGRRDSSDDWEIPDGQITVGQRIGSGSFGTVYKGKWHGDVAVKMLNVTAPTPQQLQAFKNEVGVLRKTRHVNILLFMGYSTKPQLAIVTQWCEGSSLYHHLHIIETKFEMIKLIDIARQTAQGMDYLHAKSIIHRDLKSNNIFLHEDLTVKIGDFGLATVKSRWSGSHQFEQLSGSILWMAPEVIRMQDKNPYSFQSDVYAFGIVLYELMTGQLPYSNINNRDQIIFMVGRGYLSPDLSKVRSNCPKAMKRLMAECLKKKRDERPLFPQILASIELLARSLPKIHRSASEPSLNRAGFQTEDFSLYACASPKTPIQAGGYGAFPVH
Sequence of Serine/threonine-protein kinase B-raf (Homo sapiens, UniProt P15056, V600E) (P15056 2-766 V600E limits assumed): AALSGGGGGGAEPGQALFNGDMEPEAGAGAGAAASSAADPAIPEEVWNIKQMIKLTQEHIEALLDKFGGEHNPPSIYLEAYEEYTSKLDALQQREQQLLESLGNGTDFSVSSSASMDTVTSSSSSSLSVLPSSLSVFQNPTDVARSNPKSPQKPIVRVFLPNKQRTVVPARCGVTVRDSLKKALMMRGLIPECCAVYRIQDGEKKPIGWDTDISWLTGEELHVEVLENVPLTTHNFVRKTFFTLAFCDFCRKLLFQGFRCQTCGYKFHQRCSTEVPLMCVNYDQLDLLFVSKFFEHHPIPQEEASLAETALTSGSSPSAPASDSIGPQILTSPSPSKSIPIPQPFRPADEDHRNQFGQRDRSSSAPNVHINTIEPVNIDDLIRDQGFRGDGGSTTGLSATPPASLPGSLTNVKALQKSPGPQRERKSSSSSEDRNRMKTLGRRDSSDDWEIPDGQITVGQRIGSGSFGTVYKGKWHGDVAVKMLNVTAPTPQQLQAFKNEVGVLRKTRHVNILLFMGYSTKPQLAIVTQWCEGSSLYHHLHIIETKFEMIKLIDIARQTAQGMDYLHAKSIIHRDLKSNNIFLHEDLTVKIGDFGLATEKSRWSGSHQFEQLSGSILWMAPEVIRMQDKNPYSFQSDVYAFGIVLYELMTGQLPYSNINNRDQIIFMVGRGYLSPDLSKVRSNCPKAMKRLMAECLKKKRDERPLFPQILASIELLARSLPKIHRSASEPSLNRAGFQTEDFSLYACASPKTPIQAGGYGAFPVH
Sequence of Cytochrome P450 2C19 (P33261 whole entry): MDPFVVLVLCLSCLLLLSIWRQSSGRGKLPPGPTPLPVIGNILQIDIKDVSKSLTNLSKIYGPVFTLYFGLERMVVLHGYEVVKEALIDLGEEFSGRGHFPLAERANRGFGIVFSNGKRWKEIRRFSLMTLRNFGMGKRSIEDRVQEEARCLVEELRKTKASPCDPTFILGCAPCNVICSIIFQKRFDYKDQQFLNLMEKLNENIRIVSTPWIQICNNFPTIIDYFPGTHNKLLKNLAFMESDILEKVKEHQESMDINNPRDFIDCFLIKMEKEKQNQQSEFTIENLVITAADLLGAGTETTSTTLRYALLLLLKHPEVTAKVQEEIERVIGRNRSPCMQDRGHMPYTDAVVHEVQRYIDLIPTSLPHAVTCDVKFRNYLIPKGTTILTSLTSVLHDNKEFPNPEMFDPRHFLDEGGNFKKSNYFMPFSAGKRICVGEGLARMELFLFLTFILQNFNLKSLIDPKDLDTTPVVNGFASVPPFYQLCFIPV
Sequence of Cytochrome P450 2C9 (P11712 whole entry): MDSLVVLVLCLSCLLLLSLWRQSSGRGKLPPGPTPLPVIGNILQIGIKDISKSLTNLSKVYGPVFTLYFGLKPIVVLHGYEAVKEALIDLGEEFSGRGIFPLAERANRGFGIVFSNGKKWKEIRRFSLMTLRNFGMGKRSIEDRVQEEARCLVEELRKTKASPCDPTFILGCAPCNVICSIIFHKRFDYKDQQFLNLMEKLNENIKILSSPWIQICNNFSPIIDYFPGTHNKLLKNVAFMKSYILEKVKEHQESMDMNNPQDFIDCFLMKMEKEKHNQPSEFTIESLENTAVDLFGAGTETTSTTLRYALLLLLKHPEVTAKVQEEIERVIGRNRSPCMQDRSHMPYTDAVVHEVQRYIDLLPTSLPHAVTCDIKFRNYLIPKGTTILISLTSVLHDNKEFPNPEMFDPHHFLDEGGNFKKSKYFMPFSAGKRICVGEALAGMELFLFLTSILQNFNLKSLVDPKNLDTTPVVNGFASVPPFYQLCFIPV
Sequence of Cytochrome P450 2D6 (P10635 whole entry): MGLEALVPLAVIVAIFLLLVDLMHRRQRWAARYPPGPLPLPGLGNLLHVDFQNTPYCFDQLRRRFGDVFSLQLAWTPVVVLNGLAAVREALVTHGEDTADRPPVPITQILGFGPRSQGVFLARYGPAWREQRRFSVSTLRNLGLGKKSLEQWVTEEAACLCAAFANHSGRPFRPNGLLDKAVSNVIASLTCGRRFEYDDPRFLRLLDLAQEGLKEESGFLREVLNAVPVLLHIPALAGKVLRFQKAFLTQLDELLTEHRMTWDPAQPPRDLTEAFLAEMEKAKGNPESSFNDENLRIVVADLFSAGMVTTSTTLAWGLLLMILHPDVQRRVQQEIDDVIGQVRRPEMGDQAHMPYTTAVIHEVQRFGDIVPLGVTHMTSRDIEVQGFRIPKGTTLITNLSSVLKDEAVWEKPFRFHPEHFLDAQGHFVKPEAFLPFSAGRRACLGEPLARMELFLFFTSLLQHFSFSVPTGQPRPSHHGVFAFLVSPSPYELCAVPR

IC50 [1]: 1.6 nM | Cmax [3]: 956 ng/mL | half-life [4]: 1.6 h | clearance [5]: 7.2 mL/min/kg | AUC(0-t) ([6]; Sprague-Dawley, plasma): 4700 ng·h/mL | bioavailability ([7]; Sprague-Dawley): 101% | IC50 [8]: 10 nM | IC50 [9]: 5.7 nM | half-life [13]: 1.77 h | half-life [14]: > 2.32 h | half-life [15]: 1.24 h | fraction unbound [16]: 0.006 | fraction unbound [17]: 0.018 | fraction unbound [18]: 0.06 | Cmax [19]: 2810 ng/mL | AUC(0-t) [20]: 21800 ng·h/mL | inhibition [23]: Active | Cmax [24]: 953 ng/mL | half-life [25]: 3.6 h | clearance [26]: 6.8 mL/min/kg | AUC(0-t) [27]: 5410 ng·h/mL | bioavailability [28]: 112%
SMILES: Cc1ccc(NC(=O)c2cc(C(F)(F)F)cnn2)cc1-c1ccc2c(c1)OC1(CCOCC1)CC(=O)N2
GI50 [2]: 1400 nM | GI50 [10]: 170 nM | GI50 [11]: 400 nM | GI50 [12]: 320 nM | TGI [21]: Dose-Dependent Effect | Activity [22]: Non-Toxic

IC50 [1]: 5.1 nM | solubility [29]: 0.9 µM (≈ 0.46 µg/mL) | Cmax [3]: 47.3 ng/mL | AUCt ([6]; in vivo): 3.12 ng·h/mL | F [7]: 18.7% | IC50 [8]: 12 nM | IC50 [9]: 11 nM | half-life [13]: 2.32 h | half-life [14]: > 2.32 h | half-life [15]: 0.748 h | fraction unbound [16]: 0.004 | fraction unbound [17]: 0.012 | fraction unbound [18]: 0.009 | Papp A→B [30]: 15.7 ×10⁻⁶ cm/s | Papp B→A [31]: 39.8 ×10⁻⁶ cm/s | efflux ratio [32]: 2.53 | IC50 [33]: > 30000 nM | IC50 [34]: 10300 nM | IC50 [35]: > 30000 nM | IC50 [36]: > 30000 nM | IC50 [37]: > 30000 nM | IC50 [38]: 13200 nM
SMILES: Cc1ccc(NC(=O)c2ccnc(C(F)(F)F)c2)cc1-c1ccc2c(c1)OC1(CCOCC1)CC(=O)N2
GI50 [2]: 1700 nM | GI50 [10]: 150 nM | GI50 [11]: 350 nM | GI50 [12]: 230 nM | inhibition in vivo at 30 mg/kg [39]: 41% | IC50 [40]: 3000 nM

Cmax [41]: 2848 ng/mL | Cmax [42]: 10740 ng/mL | AUCt [43]: 132780 ng·h/mL
SMILES: Cc1ccc(NC(=O)c2cc(C(F)(F)F)cnn2)cc1-c1ccc2c(c1)OC1(CCOCC1)CC(=O)N2COP(=O)(O)O
